Measurements taken from US5457121A, “Cis-hexahydro-5-(1,2,3,4-tetrahydro-2-naphthalenyl)pyrrolo<3,4-c> pyrroles as inhibitors of serotonin reuptake” (Eli Lilly and Company, priority 1994, dated 1995).

Test system: serotonin reuptake (5HT), rat cerebral cortex synaptosomes
Experiment: Inhibition of synaptosomal reuptake of 3H-serotonin (3H-5HT) in cortical synaptosomes
Format: biochemical, rat (male Sprague-Dawley)
Conditions: 37° C., 5 min, 50 nM 3H-5HT, read-out: IC50 (nM) 5HT (concentration needed to inhibit the uptake of 3H-5HT by 50%)
Protocol: This general procedure is described in Wong et al., Drug Development Research, 6, 397-403 (1985).
Male Sprague-Dawley rats (110-150 gm) from Harlan Industries (Cumberland, Ind.) were fed Purina Chow ad libitum for at least three days before being used in the study. Rats were killed by decapitation. Whole brains were removed and dissected. Cerebral cortex was homogenized in 9 volumes of a medium containing 0.32 M sucrose and 10 mM glucose. Crude synaptosomal preparations were isolated after differential centrifugation at 1,000 g for 10 min. and 17,000 g for 28 min. The final pellets were suspended in the same medium and kept in ice until use within the same day.
Synaptosomal reuptake of ^3 H-serotonin (^3 H-5-hydroxytryptamine, ^3 H-5HT) was determined as follows: Cortical synaptosomes (equivalent to 1 mg protein) were incubated at 37° C. for 5 min. in 1 mL of Krebs-bicarbonate medium containing also 10 mM glucose, 0.1 mM iproniazide, 1 mM ascorbic acid, 0.17 mM EDTA and 50 nM ^3 H-5HT. The reaction mixture was immediately diluted with 2 mL of ice chilled Krebs-bicarbonate buffer and filtered under vacuum with a cell harvester (Brandel, Gaithersburg, Md.). Filters were rinsed twice with approximately 5 mL ice chilled 0.9% saline and were transferred to a counting vial containing 10 mL of scintillation fluid (PCS, Amersham, Arlington Heights, Ill.). Radioactivity was measured by a liquid scintillation spectrophotometer. Accumulation of ^3 H-5HT at 4° C. represented the background and was subtracted from all samples.

## Cc1ccc(Br)c2c1CC(N1C[C@H]3CN(C)C[C@H]3C1)CC2 (relative stereo) [Example 10, cis-hexahydro-2-methyl-5-(1,2,3,4-tetrahydro-5-bromo-8-methyl-2-naphthalenyl)pyrrolo<3,4-c>pyrrole dimaleate]
  IC50: 413 nM

## COc1ccc(Br)c2c1CC(N1C[C@H]3CNC[C@H]3C1)CC2 (relative stereo) [Example 8, cis-hexahydro-5-(1,2,3,4-tetrahydro-5-bromo-8-methoxy-2-naphthalenyl)pyrrolo<3,4-c>pyrrole dimaleate]
  IC50: 50 nM

## CN1C[C@@H]2CN(C3CCc4ccccc4C3)C[C@@H]2C1 (relative stereo) [Example 1, cis-hexahydro-2-methyl-5-(1,2,3,4-tetrahydro-2-naphthalenyl) pyrrolo<3,4-c>pyrrole dimaleate]
  IC50: 122 nM

## CN1C[C@@H]2CN(C3CCc4cccc(O)c4C3)C[C@@H]2C1 (relative stereo) [Example 4, cis-hexahydro-2-methyl-5-(1,2,3,4-tetrahydro-8-hydroxy-2-naphthalenyl)pyrrolo<3,4-c>pyrrole dimaleate]
  IC50: 5.4 nM

## COc1ccc(Br)c2c1CC(N1C[C@H]3CN(C)C[C@H]3C1)CC2 (relative stereo) [Example 5, cis-hexahydro-2-methyl-5-(1,2,3,4-tetrahydro-5-bromo-8-methoxy-2-naphthalenyl)pyrrolo<3,4-c>pyrrole dimaleate]
  IC50: 38 nM

## COc1cccc2c1[C@@H](C)[C@@H](N1C[C@H]3CNC[C@H]3C1)CC2 (relative stereo) [Example 12, cis-hexahydro-5-(cis-1-methyl-1,2,3,4-tetrahydro-8-methoxy-2-naphthalenyl)pyrrolo<3,4-c>pyrrole dimaleate]
  IC50: 340 nM

## COc1cccc2c1CC(N1C[C@H]3CNC[C@H]3C1)CC2 (relative stereo) [Example 7, cis-hexahydro-5-(1,2,3,4-tetrahydro-8-methoxy-2-naphthalenyl)pyrrolo<3,4-c>pyrrole dimaleate]
  IC50: 30 nM

## COc1cccc2c1CC(N1C[C@H]3CN(Cc4ccccc4)C[C@H]3C1)CC2 (relative stereo) [Example 6, cis-hexahydro-2-benzyl-5-(1,2,3,4-tetrahydro-8-methoxy-2-naphthalenyl)pyrrolo<3,4-c>pyrrole dimaleate]
  IC50: 60 nM

## COc1cccc2c1CC(N1C[C@H]3CN(C)C[C@H]3C1)CC2 (relative stereo) [Example 3, cis-hexahydro-2-methyl-5-(1,2,3,4-tetrahydro-8-methoxy-2-naphthalenyl)pyrrolo<3,4-c>pyrrole dimaleate]
  IC50: 20 nM

## Cc1cccc2c1CC(N1C[C@H]3CN(C)C[C@H]3C1)CC2 (relative stereo) [Example 9, cis-hexahydro-2-methyl-5-(1,2,3,4-tetrahydro-8-methyl-2-naphthalenyl)pyrrolo<3,4-c>pyrrole dimaleate]
  IC50: 293 nM

## COc1cccc2c1[C@@H](C)[C@@H](N1C[C@H]3CN(C)C[C@H]3C1)CC2 (relative stereo) [Example 11, cis-hexahydro-2-methyl-5-(cis-1-methyl-1,2,3,4-tetrahydro-8-methoxy-2-naphthalenyl)pyrrolo<3,4-c>pyrrole dimaleate]
  IC50: 65 nM

## CN1C[C@@H]2CN(C3CCc4cccc(Cl)c4C3)C[C@@H]2C1 (relative stereo) [Example 2, cis-hexahydro-2-methyl-5-(1,2,3,4-tetrahydro-8-chloro-2-naphthalenyl)pyrrolo<3,4-c>pyrrole dimaleate]
  IC50: 42 nM
